ChEMBL document CHEMBL4808193, “[11]-Chaetoglobosins from Pseudeurotium bakeri Induce G2/M Cell Cycle Arrest and Apoptosis in Human Cancer Cells” (J Nat Prod, 2021)

How the values were obtained:
[1] = system: A-427; test: Cell cycle arrest in human A-427 cells assessed as accumulation at S phase at 6 uM measured after 24 hrs by PI staining based flow cytometry (reference value: 25.84%); assay type: functional
[2] = system: A-427; test: Induction of apoptosis in human A-427 cells assessed as early apoptotic cells at 5 uM measured after 24 hrs by Annexin V-FITC/propidium iodide staining based flow cytometric analysis (reference value: 4.75%); assay type: functional
[3] = system: A-427; test: Cell cycle arrest in human A-427 cells assessed as accumulation at G2/M phase at 2 uM measured after 24 hrs by PI staining based flow cytometry (reference value: 13.59%); assay type: functional
[4] = system: HT-29; test: Cytotoxicity against human HT-29 cells assessed as reduction in cell viability by MTT assay; assay type: functional, cell-based
[5] = system: HCT-116; test: Cytotoxicity against human HCT-116 cells assessed as reduction in cell viability by MTT assay; assay type: functional, cell-based
[6] = system: A-427; test: Induction of apoptosis in human A-427 cells assessed as early apoptotic cells at 7.5 uM measured after 24 hrs by Annexin V-FITC/propidium iodide staining based flow cytometric analysis (reference value: 4.75%); assay type: functional
[7] = system: MCF7; test: Cell cycle arrest in human MCF7 cells assessed as accumulation at G2/M phase at 10 uM measured after 24 hrs by PI staining based flow cytometry (reference value: 18.9%); assay type: functional
[8] = system: HeLa; test: Cytotoxicity against human HeLa cells assessed as reduction in cell viability by MTT assay; assay type: functional, cell-based
[9] = system: MCF7; test: Cell cycle arrest in human MCF7 cells assessed as accumulation at G0/G1 phase at 5 uM measured after 24 hrs by PI staining based flow cytometry (reference value: 61.67%); assay type: functional
[10] = system: A-427; test: Cell cycle arrest in human A-427 cells assessed as accumulation at G0/G1 phase at 2 uM measured after 24 hrs by PI staining based flow cytometry (reference value: 60.57%); assay type: functional
[11] = system: MCF7; test: Cell cycle arrest in human MCF7 cells assessed as accumulation at S phase at 5 uM measured after 24 hrs by PI staining based flow cytometry (reference value: 9.43%); assay type: functional
[12] = system: A-427; test: Cell cycle arrest in human A-427 cells assessed as accumulation at G2/M phase at 4 uM measured after 24 hrs by PI staining based flow cytometry (reference value: 13.59%); assay type: functional
[13] = system: A-427; test: Induction of apoptosis in human A-427 cells assessed as early apoptotic cells at 2.5 uM measured after 24 hrs by Annexin V-FITC/propidium iodide staining based flow cytometric analysis (reference value: 4.75%); assay type: functional
[14] = system: A-427; test: Cell cycle arrest in human A-427 cells assessed as accumulation at S phase at 4 uM measured after 24 hrs by PI staining based flow cytometry (reference value: 25.84%); assay type: functional
[15] = system: MCF7; test: Induction of apoptosis in human MCF7 cells assessed as late apoptotic cells at 7.5 uM measured after 24 hrs by Annexin V-FITC/propidium iodide staining based flow cytometric analysis (reference value: 1.19%); assay type: functional
[16] = system: A-427; test: Cell cycle arrest in human A-427 cells assessed as accumulation at G2/M phase at 6 uM measured after 24 hrs by PI staining based flow cytometry (reference value: 13.59%); assay type: functional
[17] = system: MCF7; test: Cell cycle arrest in human MCF7 cells assessed as accumulation at G2/M phase at 5 uM measured after 24 hrs by PI staining based flow cytometry (reference value: 18.9%); assay type: functional
[18] = system: A-427; test: Cell cycle arrest in human A-427 cells assessed as accumulation at G0/G1 phase at 4 uM measured after 24 hrs by PI staining based flow cytometry (reference value: 60.57%); assay type: functional
[19] = system: L02; test: Cytotoxicity against human L02 cells assessed as reduction in cell viability by MTT assay; assay type: cell-based
[20] = system: MCF7; test: Cell cycle arrest in human MCF7 cells assessed as accumulation at G0/G1 phase at 7.5 uM measured after 24 hrs by PI staining based flow cytometry (reference value: 61.67%); assay type: functional
[21] = system: MCF7; test: Induction of apoptosis in human MCF7 cells assessed as late apoptotic cells at 10 uM measured after 24 hrs by Annexin V-FITC/propidium iodide staining based flow cytometric analysis (reference value: 1.19%); assay type: functional
[22] = system: MCF7; test: Cell cycle arrest in human MCF7 cells assessed as accumulation at S phase at 10 uM measured after 24 hrs by PI staining based flow cytometry (reference value: 9.43%); assay type: functional
[23] = system: A-427; test: Induction of apoptosis in human A-427 cells assessed as late apoptotic cells at 7.5 uM measured after 24 hrs by Annexin V-FITC/propidium iodide staining based flow cytometric analysis (reference value: 3.59%); assay type: functional
[24] = system: MCF7; test: Cell cycle arrest in human MCF7 cells assessed as accumulation at G2/M phase at 7.5 uM measured after 24 hrs by PI staining based flow cytometry (reference value: 18.9%); assay type: functional
[25] = system: MCF7; test: Induction of apoptosis in human MCF7 cells assessed as late apoptotic cells at 5 uM measured after 24 hrs by Annexin V-FITC/propidium iodide staining based flow cytometric analysis (reference value: 1.19%); assay type: functional
[26] = system: HepG2; test: Cytotoxicity against human HepG2 cells assessed as reduction in cell viability by MTT assay; assay type: functional, cell-based
[27] = system: A-427; test: Cytotoxicity against human A-427 cells assessed as reduction in cell viability by MTT assay; assay type: functional, cell-based
[28] = system: MCF7; test: Cell cycle arrest in human MCF7 cells assessed as accumulation at S phase at 7.5 uM measured after 24 hrs by PI staining based flow cytometry (reference value: 9.43%); assay type: functional
[29] = system: MCF7; test: Induction of apoptosis in human MCF7 cells assessed as early apoptotic cells at 10 uM measured after 24 hrs by Annexin V-FITC/propidium iodide staining based flow cytometric analysis (reference value: 3.07%); assay type: functional
[30] = system: MCF7; test: Induction of apoptosis in human MCF7 cells assessed as early apoptotic cells at 5 uM measured after 24 hrs by Annexin V-FITC/propidium iodide staining based flow cytometric analysis (reference value: 3.07%); assay type: functional
[31] = system: MCF7; test: Cytotoxicity against human MCF7 cells assessed as reduction in cell viability by MTT assay; assay type: functional, cell-based
[32] = system: MCF7; test: Induction of apoptosis in human MCF7 cells assessed as early apoptotic cells at 7.5 uM measured after 24 hrs by Annexin V-FITC/propidium iodide staining based flow cytometric analysis (reference value: 3.07%); assay type: functional
[33] = system: A-427; test: Induction of apoptosis in human A-427 cells assessed as late apoptotic cells at 2.5 uM measured after 24 hrs by Annexin V-FITC/propidium iodide staining based flow cytometric analysis (reference value: 3.59%); assay type: functional
[34] = system: A-427; test: Induction of apoptosis in human A-427 cells assessed as late apoptotic cells at 5 uM measured after 24 hrs by Annexin V-FITC/propidium iodide staining based flow cytometric analysis (reference value: 3.59%); assay type: functional
[35] = system: A-427; test: Cell cycle arrest in human A-427 cells assessed as accumulation at S phase at 2 uM measured after 24 hrs by PI staining based flow cytometry (reference value: 25.84%); assay type: functional
[36] = system: A-427; test: Cell cycle arrest in human A-427 cells assessed as accumulation at G0/G1 phase at 6 uM measured after 24 hrs by PI staining based flow cytometry (reference value: 60.57%); assay type: functional
[37] = system: MCF7; test: Cell cycle arrest in human MCF7 cells assessed as accumulation at G0/G1 phase at 10 uM measured after 24 hrs by PI staining based flow cytometry (reference value: 61.67%); assay type: functional
[38] = system: A549; test: Cytotoxicity against human A549 cells assessed as reduction in cell viability by MTT assay; assay type: functional, cell-based

Structure (SMILES): CC1=C[C@@H]2/C=C/C[C@H](C)CC(=O)/C=C\C(=O)[C@]23C(=O)N[C@@H](Cc2c[nH]c4ccccc24)[C@@H]3[C@@H]1C
- Activity [1]: 22.56%
- Activity [2]: 23.77%
- Activity [3]: 34.67%
- IC50 [4]: 8.2 µM
- IC50 [5]: 10.6 µM
- Activity [6]: 27.61%
- Activity [7]: 60.73%
- IC50 [8]: 8.4 µM
- Activity [9]: 37.81%
- Activity [10]: 44.94%
- Activity [11]: 13.57%
- Activity [12]: 44.26%
- Activity [13]: 12.11%
- Activity [14]: 21.18%
- Activity [15]: 7.41%
- Activity [16]: 50.04%
- Activity [17]: 48.62%
- Activity [18]: 34.56%
- IC50 [19]: 35.5 µM
- Activity [20]: 35%
- Activity [21]: 9.17%
- Activity [22]: 12.31%
- Activity [23]: 32.81%
- Activity [24]: 51.12%
- Activity [25]: 7.3%
- IC50 [26]: 9.6 µM
- IC50 [27]: 6.6 µM
- Activity [28]: 13.87%
- Activity [29]: 28.62%
- Activity [30]: 18.98%
- IC50 [31]: 7.2 µM
- Activity [32]: 25.77%
- Activity [33]: 17.54%
- Activity [34]: 23.7%
- Activity [35]: 20.39%
- Activity [36]: 27.41%
- Activity [37]: 26.96%
- IC50 [38]: 7.9 µM
